The text below walks through data of patent US20110301142A1, “ANTAGONISTS OF LYSOPHOSPHATIDIC ACID RECEPTORS” (priority 2008, published 2011).

In one experiment the target is T1, human LPA1 (Homo sapiens, UniProt Q92633).
T1 construct: the full-length cDNA for human LPA1 was obtained by PCR of the reverse transcription reaction; expressed in transfected cells
The experiment can be described thus: LPA1 calcium flux assay (HLPA1 Ca Flux). It counts as cell-based. To be noted: Human LPA1 expressing CHO cells, stimulated with 10 nM LPA. In outline: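 CHO cells stably expressing cloned human LPA1, serum-starved overnight and loaded with Calcium 4 dye, were preincubated 30 min at room temperature with compound. Cells were then challenged with 10 nM LPA and intracellular Ca2+ measured; IC50 values came from titration curves.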
(In general: Calcium assays in cells follow changes in intracellular calcium, usually with a dye or a luminescent sensor.)

In a further experiment the target is T2, human LPA3 (Homo sapiens, UniProt Q9UBY5).
T2 construct: The full-length cDNA fragment for human LPA3 was obtained by PCR from the vector; expressed in transfected cells; cDNA from the Missouri S&T cDNA Resource Center
T2 sequence (Q9UBY5 1-353): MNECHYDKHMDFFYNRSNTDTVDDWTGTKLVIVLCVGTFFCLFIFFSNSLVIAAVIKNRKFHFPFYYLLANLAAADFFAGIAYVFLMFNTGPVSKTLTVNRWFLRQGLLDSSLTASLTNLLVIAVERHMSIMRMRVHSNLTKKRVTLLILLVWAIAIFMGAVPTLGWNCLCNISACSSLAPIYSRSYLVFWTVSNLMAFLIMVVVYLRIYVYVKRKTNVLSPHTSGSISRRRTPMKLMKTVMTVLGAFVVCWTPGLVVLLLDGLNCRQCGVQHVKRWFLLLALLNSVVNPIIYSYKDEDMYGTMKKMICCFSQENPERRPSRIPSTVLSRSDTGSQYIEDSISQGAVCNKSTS
Put plainly: LPA3 calcium flux assay. It counts as cell-based. To be noted: Human LPA3 expressing CHO cells, stimulated with 10 nM LPA; read-out: HLPA3 Ca Flux IC50. The method, then: A vector containing the human LPA3 receptor cDNA was obtained from the Missouri S&T cDNA Resource Center (www.cdna.org). The full-length cDNA fragment for human LPA3 was obtained by PCR from the vector. The nucleotide sequence of the cloned human LPA3 was determined by sequencing and confirmed to be identical to the published human LPA3 sequence (NCBI accession number NM 012152). The cDNA was cloned into the pcDNA5/FRT expression plasmid and transfected in CHO cells using lipofectamine 2000 (Invitrogen Corp., USA). Clones stably expressing human LPA3 were selected using hygromycin and identified as cells that show Ca-influx in response to LPA.
Human LPA1 or LPA3 expressing CHO cells are seeded at 20,000-45,000 cells per well in a 96-well poly-D-lysine coated plate one or two days before the assay. Prior to the assay, the cells are washed once with PBS and then cultured in serum-free media overnight. On the day of the assay, a calcium indicator dye (Calcium 4, Molecular Devices) in assay buffer (HBSS with Ca^2+ and Mg^2+ and containing 20 mM Hepes and 0.3% fatty-acid free human serum albumin) is added to each well and incubation continued for 1 hour at 37° C. 10 μl of test compounds in 2.5% DMSO are added to the cells and incubation continued at room temperature for 30 minutes. Cells are the stimulated by the addition of 10 nM LPA and intracellular Ca^2+ measured using the Flexstation 3 (Molecular Devices). IC50s are determined using Graphpad prism analysis of drug titration curves.

Structures are written as SMILES.

In general, IC50 refers to the concentration needed to halve the response being measured.

T1 sequence (Q92633 whole entry): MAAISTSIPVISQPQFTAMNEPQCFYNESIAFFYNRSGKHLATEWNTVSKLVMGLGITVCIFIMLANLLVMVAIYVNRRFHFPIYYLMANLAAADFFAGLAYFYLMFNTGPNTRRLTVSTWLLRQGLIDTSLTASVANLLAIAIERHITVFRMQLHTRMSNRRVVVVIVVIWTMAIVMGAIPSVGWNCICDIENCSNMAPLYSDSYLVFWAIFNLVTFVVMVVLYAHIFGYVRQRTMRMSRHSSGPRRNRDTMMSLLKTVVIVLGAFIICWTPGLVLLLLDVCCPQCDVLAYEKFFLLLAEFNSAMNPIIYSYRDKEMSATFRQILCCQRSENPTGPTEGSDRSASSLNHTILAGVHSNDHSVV

Turning to `COC(=O)Cc1ccc(OCc2ccc(-c3onc(C)c3NC(=O)O[C@H](C)c3ccccc3Cl)cc2)cc1` [Compound 1-102, [4-(4-{4-[(R)-1-(2-Chloro-phenyl)-ethoxycarbonylamino]-3-methyl-isoxazol-5-yl}-benzyloxy)-phenyl]-acetic acid methyl ester], the IC50 at human LPA1 is less than 0.3 µM; at human LPA3, 1 to 50 µM.

For `Cc1ccccc1[C@@H](C)OC(=O)Nc1c(C)noc1-c1ccc(-c2ccc(CC(=O)O)cc2)cc1` [Compound 1-124], the results for the half-inhibitory concentration (IC50) at human LPA1 and at human LPA3 were less than 0.3 µM and 1 to 50 µM, respectively.

For `Cc1noc(-c2ccc(-c3cccc(C(=O)O)c3)cc2)c1NC(=O)OC(C)c1ccccc1Cl` (stereo not shown) [Compound 1-76, 4′-{4-[1-(2-Chloro-phenyl)-ethoxycarbonylamino]-3-methyl-isoxazol-5-yl}-biphenyl-3-carboxylic acid], the half-maximal inhibitory concentration (IC50) was less than 0.3 µM at human LPA1 and 1 to 50 µM at human LPA3.

In the case of `Cc1noc(-c2ccc(-c3ccc(C(C)C(=O)O)cc3)cc2)c1NC(=O)OC(C)c1ccccc1Cl` (stereo not shown) [Compound 1-71, 2-(4′-{4-[1-(2-Chloro-phenyl)-ethoxycarbonylamino]-3-methyl-isoxazol-5-yl}-biphenyl-4-yl)-propionic acid], the half-inhibitory concentration (IC50) was less than 0.3 µM on human LPA1 and 1 to 50 µM on human LPA3.

As for `Cc1noc(-c2ccc(-c3ccc(CC(=O)O)cn3)cn2)c1NC(=O)O[C@H](C)c1ccccc1F` [Compound 1-126, (6′-{4-[(R)-1-(2-Fluoro-phenyl)-ethoxycarbonylamino]-3-methyl-isoxazol-5-yl}-[2,3,1]bipyridinyl-5-yl)-acetic acid], the IC50 on human LPA1 is less than 0.3 µM; at human LPA3 it was 1 to 50 µM.

As to `Cc1cc(-c2onc(C)c2NC(=O)O[C@H](C)c2ccccc2F)ccc1-c1ccc(CC(=O)O)cc1` [Compound 1-85, (4′-{4-[(R)-1-(2-Fluoro-phenyl)-ethoxycarbonylamino]-3-methyl-isoxazol-5-yl}-2′-methyl-biphenyl-4-yl)-acetic acid], the 50% inhibitory concentration (IC50) is less than 0.3 µM at human LPA1 and 1 to 50 µM on human LPA3.

Regarding `Cc1noc(-c2ccc(-c3ccc(Cc4nn[nH]n4)cc3)cc2)c1NC(=O)O[C@H](C)c1ccccc1Cl` [Compound 2-5, {3-Methyl-5-[4′-(2H-tetrazol-5-ylmethyl)-biphenyl-4-yl]-isoxazol-4-yl}-carbamic acid (R)-1-(2-chloro-phenyl)-ethyl ester], the IC50 is less than 0.3 µM on human LPA1 and 1 to 50 µM on human LPA3.

For `Cc1noc(-c2ccc(COc3ccccc3CC(=O)O)cc2)c1NC(=O)OC(C)c1ccccc1Cl` (stereo not shown) [Compound 1-79, [2-(4-{4-[1-(2-Chloro-phenyl)-ethoxycarbonylamino]-3-methyl-isoxazol-5-yl}-benzyloxy)-phenyl]-acetic acid], the figures for the IC50 on human LPA1 and at human LPA3 were less than 0.3 µM and 1 to 50 µM, respectively.

With `Cc1noc(-c2ccc(-c3ccc(C(C)C(=O)O)cc3)cc2)c1NC(=O)O[C@H](C)c1ccccc1Cl` (stereo partly drawn) [Compound 1-92, 2-(4′-{4-[(R)-1-(2-Chloro-phenyl)-ethoxycarbonylamino]-3-methyl-isoxazol-5-yl}-biphenyl-4-yl)-propionic acid], the half-inhibitory concentration (IC50) on human LPA1 was less than 0.3 µM; at human LPA3, 0.3 to 1 µM.

With `Cc1noc(-c2ccc(-c3ccc(CC(=O)O)cc3)cc2)c1NC(=O)O[C@H](C)c1cccc(O)c1` [Compound 1-144, (4′-{4-[(R)-1-(3-Hydroxy-phenyl)-ethoxycarbonylamino]-3-methyl-isoxazol-5-yl}-biphenyl-4-yl)-acetic acid], the results for the IC50 on human LPA1 and at human LPA3 were 1 to 50 µM and greater than 50 µM, respectively.

In the case of `Cc1noc(-c2ccc(COc3cccc(C(=O)O)c3)cc2)c1NC(=O)OC(C)c1ccccc1Cl` (stereo not shown) [Compound 1-12, 3-(4-{4-[1-(2-Chloro-phenyl)-ethoxycarbonylamino]-3-methyl-isoxazol-5-yl}-benzyloxy)-benzoic acid], the half-maximal inhibitory concentration (IC50) on human LPA1 was less than 0.3 µM; on human LPA3 it was 1 to 50 µM.

`Cc1noc(-c2ccc(-c3ccc(CC(=O)O)cc3)cc2)c1NC(=O)OC(C)c1cccc(F)c1F` (stereo not shown) [Compound 1-116, (4′-{4-[1-(2,3-Difluoro-phenyl)-ethoxycarbonylamino]-3-methyl-isoxazol-5-yl}-biphenyl-4-yl)-acetic acid]: the results for the half-maximal inhibitory concentration (IC50) on human LPA1 and at human LPA3 were less than 0.3 µM and 1 to 50 µM, respectively.

With `Cc1noc(-c2ccc(-c3ccc(CC(=O)O)cc3)cc2)c1NC(=O)OC(C)c1ccc(F)cc1F` (stereo not shown) [Compound 1-117, (4′-{4-[1-(2,4-Difluoro-phenyl)-ethoxycarbonylamino]-3-methyl-isoxazol-5-yl}-biphenyl-4-yl)-acetic acid], the values for the 50% inhibitory concentration (IC50) at human LPA1 and at human LPA3 were less than 0.3 µM and 1 to 50 µM, respectively.

Turning to `Cc1noc(-c2ccc(Oc3cccc(CC(=O)O)c3)cc2)c1NC(=O)O[C@H](C)c1ccccc1F` [Compound 1-96, [3-(4-{4-[1-(2-Fluoro-phenyl)-ethoxycarbonylamino]-3-methyl-isoxazol-5-yl}-phenoxy)-phenyl]-acetic acid], the IC50 is less than 0.3 µM at human LPA1 and 1 to 50 µM on human LPA3.

Consider `Cc1noc(-c2ccc(Sc3ccc(CC(=O)O)cc3)cc2)c1NC(=O)O[C@H](C)c1ccccc1F` [Compound 1-109, [4-(4-{4-[(R)-1-(2-Fluoro-phenyl)-ethoxycarbonylamino]-3-methyl-isoxazol-5-yl}-phenylsulfanyl)-phenyl]-acetic acid], for which the results for the concentration for half-maximal inhibition (IC50) on human LPA1 and at human LPA3 were less than 0.3 µM and 1 to 50 µM, respectively.

For `Cc1noc(-c2ccc(-c3ccc(C(C)(C)C(=O)O)cc3)cc2)c1NC(=O)O[C@H](C)c1ccccc1Cl` [Compound 1-89, 2-(4′-{4-[(R)-1-(2-Chloro-phenyl)-ethoxycarbonylamino]-3-methyl-isoxazol-5-yl}-biphenyl-4-yl)-2-methyl-propionic acid], the half-maximal inhibitory concentration (IC50) was less than 0.3 µM on human LPA1 and 0.3 to 1 µM at human LPA3.

In the case of `Cc1noc(-c2ccc(-c3ccc(CC(=O)O)cc3)cc2)c1NC(=O)O[C@@H](C)c1ccccc1F` [Compound 1-111, (4′-{4-[(S)-1-(2-Fluoro-phenyl)-ethoxycarbonylamino]-3-methyl-isoxazol-5-yl}-biphenyl-4-yl)-acetic acid], the 50% inhibitory concentration (IC50) on human LPA1 was less than 0.3 µM; on human LPA3, 1 to 50 µM.

For the molecule `Cc1noc(-c2ccc(-c3ccc(CC(=O)O)cc3)cc2)c1NC(=O)OC(C)c1ccc(Cl)cc1Cl` (stereo not shown) [Compound 1-25, (4′-{4-[1-(2,4-Dichloro-phenyl)-ethoxycarbonylamino]-3-methyl-isoxazol-5-yl}-biphenyl-4-yl)-acetic acid], the figures for the 50% inhibitory concentration (IC50) at human LPA1 and on human LPA3 were less than 0.3 µM and 1 to 50 µM, respectively.

As for `Cc1noc(-c2ccc(-c3ccc(CC(=O)O)cc3)cc2)c1NC(=O)O[C@@H](C)c1ccccc1Cl` [Compound 1-112, (4′-{4-[(S)-1-(2-Chloro-phenyl)-ethoxycarbonylamino]-3-methyl-isoxazol-5-yl}-biphenyl-4-yl)-acetic acid], the results for the half-maximal inhibitory concentration (IC50) on human LPA1 and at human LPA3 were 0.3 to 1 µM and 1 to 50 µM, respectively.

Turning to `Cc1noc(-c2ccc(C3=CCC(C(=O)O)CC3)cc2)c1NC(=O)OC(C)c1ccccc1Cl` (stereo not shown) [Compound 1-66, 4-(4-{4-[1-(2-Chloro-phenyl)-ethoxycarbonylamino]-3-methyl-isoxazol-5-yl}-phenyl)-cyclohex-3-enecarboxylic acid], the concentration for half-maximal inhibition (IC50) at human LPA1 is less than 0.3 µM; on human LPA3, 1 to 50 µM.

With `Cc1noc(-c2ccc(CS(=O)(=O)c3ccccc3CC(=O)O)cc2)c1NC(=O)OC(C)c1ccccc1Cl` (stereo not shown) [Compound 1-99, [2-(4-{4-[1-(2-Chloro-phenyl)-ethoxycarbonylamino]-3-methyl-isoxazol-5-yl}-phenylmethanesulfonyl)-phenyl]-acetic acid], the IC50 was less than 0.3 µM at human LPA1 and 1 to 50 µM on human LPA3.

Turning to `Cc1noc(-c2ccc(-c3ccc(CC(=O)O)cc3)cc2Cl)c1NC(=O)O[C@H](C)c1ccccc1Cl` [Compound 1-129, (3′-Chloro-4′-{4-[(R)-1-(2-chloro-phenyl)-ethoxycarbonylamino]-3-methyl-isoxazol-5-yl}-biphenyl-4-yl)-acetic acid], the IC50 was less than 0.3 µM at human LPA1 and 1 to 50 µM on human LPA3.

Consider `Cc1noc(-c2ccc(-c3ccc(CC(=O)O)cc3)cc2)c1NC(=O)OC(C)c1c(F)cccc1F` (stereo not shown) [Compound 1-120, (4′-{4-[1-(2,6-Difluoro-phenyl)-ethoxycarbonylamino]-3-methyl-isoxazol-5-yl}-biphenyl-4-yl)-acetic acid], for which the 50% inhibitory concentration (IC50) was less than 0.3 µM at human LPA1 and greater than 50 µM on human LPA3.
